Earlier results in US6544543B1, “Periodic constriction of vessels to treat ischemic tissue” (Advanced Cardiovascular Systems, Inc., priority 2000, dated 2003).

Legend:
[1] = avidin tetramer binds four biotin molecules in solution, noncovalent interaction
[2] = avidin tetramer-biotin noncovalent interaction

binding constant [1]: about 10^15 M^−1
Substance: avidin: polypeptide of at least 128 amino acid residues, forms a tetramer, binds four biotin molecules; member of the affinity pair
half-life in vivo [2]: about 89 days
